Measured values from patent US10208056B2, “Condensed tricyclic compounds as protein kinase inhibitors” (FUNDACIÓN DEL SECTOR PÚBLICO ESTATAL CENTRO NACIONAL DE …, priority 2015, dated 2019).
Like-named read-outs stand apart in the source and are kept apart here.

Columns and labels:
CDK8/Cyclin C = CDK8/Cyclin C (Homo sapiens (Human), UniProt P49336); assay: CDK8/Cyclin C binding assay (LanthaScreen Eu-Kinase Binding Assay); details: binding assay
Description: The enzyme has been purchase from Invitrogen (PV4402) as a dimer of full-length His-tagged recombinant human proteins.
Assays were performed in 384-well plates. The final read out was generated using an EnVision plate reader (Perkin-Elmer).

Haspin kinase = Haspin kinase (Homo sapiens (Human), UniProt Q8TF76); assay: Haspin kinase assay (ADP-Glo); type: biochemical; details: ATP 150 μM
Method in brief: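 ADP-Glo luminescence measured the intrinsic ATPase activity, without peptide substrate, of the GST-tagged human Haspin kinase domain (20 nM) at 150 μM ATP. Reactions ran 60 min at 30 °C in HEPES pH 7.4 buffer with 10 mM MgCl2 and 1% DMSO. Inhibition was calculated against no-compound controls across 1:3 dilution series.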

intracellular CDK8 [1] = biological target: T1, intracellular CDK8 (Homo sapiens (Human), UniProt P49336); assay: Cellular CDK8 inhibition assay, western blot P-STAT1 (S727) in IFN-γ treated SW620 cells; type: cell-based; details: SW620, IFNγ treated, semiquantitative; read-out: SW620 P-STAT1(S727) w IFNγ
Description: Compounds can be screened for their ability to inhibit intracellular CDK8 using a western blot assay to detect phosphorylation of the CDK8 substrate STAT1 (S727) in IFN-γ treated cells. SW620 cells are plated at 1*10^6 cells per well in 6-well plates (Solmeglas 13118) in RPMI media (Sigma-Aldrich R6504) supplemented with 10% foetal bovine serum (Sigma-Aldrich F7524), Penicillin/Streptomycin solution diluted 1:100 (Gibco 15070-063), and fungizone (Gibco, 15290-018), and allowed to adhere overnight at 37° C. in 5% CO2. Compounds are then added to the cell media from a final concentration of 10 μM in 10-fold serial dilutions and the cells are incubated at 37° C. in 5% CO2. After 1 hour, IFNγ (R&D systems Ref. RYD-285-IF-100) is added to a final concentration of […]. After 3 hours of treatment with IFNγ, the cells are washed in PBS, lysed adding 100 μl of protein lysis buffer (62.5 mM Tris pH 6.8 al 6.25%, 2% SDS y 10% glycerol) incubation 10 minutes at room temperature and heating at 95° C. 10 min. The protein content of the lysates is determined by DC protein assay (Biorad, Ref. 5000116). The proteins are resolved by SDS-PAGE and transferred to nitrocellulose membrane (VWR International eurolab, Ref. 732-4007). The membranes are incubated overnight at 4° C. with antibodies specific for total STAT1 (BD Transduction laboratory #610115), phosphoserine-727 STAT1 (Cell Signaling Ref. 9177) they are washed and then incubated with IRDye800 conjugated anti-mouse (Pierce/Cultek, 35521) and Alexa Fluor 680 goat anti-rabbit IgG secondary antibodies (Invitrogen, A21076). The bands are visualized and quantified using an Odyssey infrared imaging system (Li-Cor Biosciences). The percentage of phosphorylated STAT1 vs total STAT1 in cells treated with IFNγ is taken as hundred percent of phosphorylation. The percentage of STAT1 phosphorylation is finally plotted against concentration for each compound and EC50s for intracellular CDK8 inhibition are calculated using ActivityBase from IDBS.

intracellular HASPIN [2] = biological target: T2, intracellular HASPIN (Homo sapiens (Human), UniProt Q8TF76); assay: Cellular HASPIN inhibition assay, western blot phospho H3T3 in synchronized SW620 cells; type: cell-based; details: semiquantitative, read-out: SW620 PH3(T3) in synchronized cells
Description: Compounds can be screened for their ability to inhibit intracellular HASPIN using a western blot assay to detect phosphorylation of the HASPIN substrate H3T3 in synchronized cells. SW620 cells are plated at 200000 cells per well in 6-well plates (Solmeglas 13118) in RPMI media (Sigma-Aldrich R6504) supplemented with 10% foetal bovine serum (Sigma-Aldrich F7524), Penicillin/Streptomycin solution diluted 1:100 (Gibco 15070-063), and fungizone (Gibco, 15290-018), and allowed to adhere overnight at 37° C. in 5% CO2. Cells are then treated 16 h hours with Nocadazole (Sigma-Aldrich M1404) at 250 ng/ml to arrest them in mitosis. Proteasoma inhibitor MG132 (Sigma-Aldrich C2211) is added to a final concentration of […] to keep cells arrested in mitosis. Compounds are then added to the cell media from a final concentration of 10 μM in 10-fold serial dilutions and the cells are incubated at 37° C. in 5% CO2. After 1 hour and 30 minutes of treatment with the compounds, the cells are washed in PBS, lysed adding 100 μl of protein lysis buffer (62.5 mM Tris pH 6.8 al 6.25%, 2% SDS y 10% glycerol) incubation 10 minutes at room temperature and heating at 95° C. 10 min. The protein content of the lysates is determined by DC protein assay (Biorad, Ref. 5000116). The proteins are resolved by SDS-PAGE and transferred to nitrocellulose membrane (VWR International eurolab, Ref. 732-4007). The membranes are incubated overnight at 4° C. with antibodies specific for total H3 (Millipore #07424), phosphothreonine-3 H3 (Cell Signaling Ref. 14269) they are washed and then incubated with IRDye800 conjugated anti-mouse (Pierce/Cultek, 35521) and Alexa Fluor 680 goat anti-rabbit IgG secondary antibodies (Invitrogen, A21076). The bands are visualized and quantified using an Odyssey infrared imaging system (Li-Cor Biosciences). The percentage of phosphorylated H3 vs total H3 in synchronized cells is taken as hundred percent of phosphorylation. The percentage of H3 phosphorylation is finally plotted against concentration for each compound and EC50s for intracellular HASPIN inhibition are calculated using ActivityBase from IDBS.

intracellular HASPIN [3] = biological target: T2, intracellular HASPIN; assay: Endogenous phosphoH3 inhibition in SW620 cells growing in 10% FBS; type: cell-based; details: semiquantitative, read-out: SW620 pH3(T3)
Description: (§1) Endogenous phosphoH3 inhibition can be screened in cells growing in 10% FBS. Cells are plated as described before and treated for 8 h with compounds as described before. Then cells are lysated and phospho H3 evaluated as described before. The percentage of phosphorylated H3 vs total H3 in cells treated with DMSO is taken as hundred percent of phosphorylation. The percentage of H3 phosphorylation is finally plotted against concentration for each compound and EC50s for intracellular HASPIN inhibition are calculated using ActivityBase from IDBS.

MV4:11 = assay: In vitro cell proliferation assay (CellTiter-Glo), MV4:11; type: cell-based; details: growth inhibition, semiquantitative, read-out: GI50 MV4:11
Description: (§2) The in vitro potency of the compounds was measured by the cell proliferation assay CellTiter-Glo® Luminescent Cell Viability Assay, commercially available from Promega Corp., Madison, Wis. This homogeneous assay method is based on the recombinant expression of Coleoptera luciferase (U.S. Pat. No. 5,583,024; U.S. Pat. No. 5,674,713; U.S. Pat. No. 5,700,670) and determines the number of viable cells in culture based on quantitation of the ATP present, an indicator of metabolically active cells (Crouch et al (1993) J. Immunol. Meth. 160:81-88; U.S. Pat. No. 6,602,677). The CellTiterGlo® Assay was conducted […] it amenable to automated high throughput screening (HTS) (Cree et al (1995) AntiCancer Drugs 6:398-404).
(§3) The homogeneous assay procedure involves adding the single reagent (CellTiter-Glo® Reagent) directly to cells cultured in serum-supplemented medium. Cell washing, removal of medium and multiple pipetting steps are not required. The system detects as few as 15 cells/well in a 96-well format in 10 minutes after adding reagent and mixing.
(§4) The homogeneous “add-mix-measure” format results in cell lysis and generation of a luminescent signal proportional to the amount of ATP present. The amount of ATP is directly proportional to the number of cells present in culture. The CellTiter-Glo® Assay generates a “glow-type” luminescent signal, produced by the luciferase reaction, which has a half-life generally greater than five hours, depending on cell type and medium used. Viable cells are reflected in relative luminescence units (RLU). The substrate, Beetle Luciferin, is oxidatively decarboxylated by recombinant firefly luciferase with concomitant conversion of ATP to AMP and generation of photons. The extended half-life eliminates the need to use reagent injectors and provides flexibility for continuous or batch mode processing of multiple plates. This cell proliferation assay can be used with various multiwell formats, e.g. 96 or 384 well format. Data can be recorded by luminometer or CCD camera imaging device. The luminescence output is presented as relative light units (RLU), measured over time.

MDA-MB-231 = assay: In vitro cell proliferation assay (CellTiter-Glo), MDA-MB-231; type: cell-based; details: growth inhibition, semiquantitative, read-out: GI50 MDA-MB-231
Description: as §2, §3, §4

SW620 = assay: In vitro cell proliferation assay (CellTiter-Glo), SW620; type: cell-based, human; details: growth inhibition, semiquantitative, read-out: GI50 SW620
Description: as §2, §3, §4

Molm13 = assay: In vitro cell proliferation assay (CellTiter-Glo), Molm13; type: cell-based; details: growth inhibition, semiquantitative, read-out: GI50 Molm13
Description: as §2, §3, §4

CDK19/Cyclin C = CDK19/Cyclin C (Homo sapiens (Human), UniProt Q9BWU1); assay: CDK19/Cyclin C binding assay (LanthaScreen Eu-Kinase Binding Assay); details: read-out: CDK19-CYCC IC50
Method in brief: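 LanthaScreen TR-FRET tracer-displacement format with 2 nM Cdk19-Cyclin C, 20 nM tracer and 2 nM Eu-anti-GST antibody. The buffer was 50 mM HEPES pH 7.5, 10 mM MgCl2, 1 mM EGTA, 0.01% Brij-35, with 1% DMSO final. Compounds were tested as 1:3 serial dilutions and incubated for 60 min at 25 °C.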

intracellular CDK8 [4] = biological target: T1, intracellular CDK8; assay: Endogenous phosphoSTAT1 inhibition in SW620 cells growing in 10% FBS; type: cell-based; details: semiquantitative, read-out: SW620 P-STAT1(S727)
Description: as §1, with “Endogenous phosphoSTAT1” for “Endogenous phosphoH3”, “phospho STAT1 is” for “phospho H3”, “phosphorylated STAT1” for “phosphorylated H3”, “total STAT1” for “total H3”, “of STAT1” for “of H3”, “intracellular CDK8” for “intracellular HASPIN”

Chain of CDK19/Cyclin C (Q9BWU1 whole entry): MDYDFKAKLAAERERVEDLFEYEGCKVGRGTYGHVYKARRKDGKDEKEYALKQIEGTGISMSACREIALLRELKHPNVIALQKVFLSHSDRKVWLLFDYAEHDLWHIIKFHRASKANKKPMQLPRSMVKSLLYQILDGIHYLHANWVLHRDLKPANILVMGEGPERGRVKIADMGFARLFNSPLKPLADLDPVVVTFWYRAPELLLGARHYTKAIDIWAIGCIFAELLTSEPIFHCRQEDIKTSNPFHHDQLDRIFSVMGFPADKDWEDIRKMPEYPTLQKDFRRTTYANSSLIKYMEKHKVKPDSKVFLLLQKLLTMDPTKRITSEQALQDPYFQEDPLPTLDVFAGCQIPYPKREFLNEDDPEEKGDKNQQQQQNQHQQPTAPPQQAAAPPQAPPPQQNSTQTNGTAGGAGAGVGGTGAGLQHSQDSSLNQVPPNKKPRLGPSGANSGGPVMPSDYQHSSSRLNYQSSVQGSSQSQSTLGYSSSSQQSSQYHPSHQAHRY
Chain of CDK19/Cyclin C (P24863 whole entry partner): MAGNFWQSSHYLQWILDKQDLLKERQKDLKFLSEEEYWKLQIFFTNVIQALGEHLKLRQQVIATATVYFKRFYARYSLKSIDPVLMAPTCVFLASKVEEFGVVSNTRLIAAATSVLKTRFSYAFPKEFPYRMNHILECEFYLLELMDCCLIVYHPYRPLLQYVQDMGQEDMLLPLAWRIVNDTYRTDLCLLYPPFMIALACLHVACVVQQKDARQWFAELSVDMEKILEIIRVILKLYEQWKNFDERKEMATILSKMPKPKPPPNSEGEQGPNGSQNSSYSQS
Chain of Haspin kinase (Q8TF76 484-798): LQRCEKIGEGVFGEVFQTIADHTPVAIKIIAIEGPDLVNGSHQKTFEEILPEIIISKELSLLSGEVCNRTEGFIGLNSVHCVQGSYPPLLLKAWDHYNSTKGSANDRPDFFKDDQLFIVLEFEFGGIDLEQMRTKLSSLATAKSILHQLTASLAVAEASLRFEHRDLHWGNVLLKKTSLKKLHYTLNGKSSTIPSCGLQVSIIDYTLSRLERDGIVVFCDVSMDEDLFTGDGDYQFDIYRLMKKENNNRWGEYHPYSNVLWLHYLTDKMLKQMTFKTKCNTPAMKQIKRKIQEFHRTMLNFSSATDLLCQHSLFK
T2 sequence (Q8TF76 whole entry): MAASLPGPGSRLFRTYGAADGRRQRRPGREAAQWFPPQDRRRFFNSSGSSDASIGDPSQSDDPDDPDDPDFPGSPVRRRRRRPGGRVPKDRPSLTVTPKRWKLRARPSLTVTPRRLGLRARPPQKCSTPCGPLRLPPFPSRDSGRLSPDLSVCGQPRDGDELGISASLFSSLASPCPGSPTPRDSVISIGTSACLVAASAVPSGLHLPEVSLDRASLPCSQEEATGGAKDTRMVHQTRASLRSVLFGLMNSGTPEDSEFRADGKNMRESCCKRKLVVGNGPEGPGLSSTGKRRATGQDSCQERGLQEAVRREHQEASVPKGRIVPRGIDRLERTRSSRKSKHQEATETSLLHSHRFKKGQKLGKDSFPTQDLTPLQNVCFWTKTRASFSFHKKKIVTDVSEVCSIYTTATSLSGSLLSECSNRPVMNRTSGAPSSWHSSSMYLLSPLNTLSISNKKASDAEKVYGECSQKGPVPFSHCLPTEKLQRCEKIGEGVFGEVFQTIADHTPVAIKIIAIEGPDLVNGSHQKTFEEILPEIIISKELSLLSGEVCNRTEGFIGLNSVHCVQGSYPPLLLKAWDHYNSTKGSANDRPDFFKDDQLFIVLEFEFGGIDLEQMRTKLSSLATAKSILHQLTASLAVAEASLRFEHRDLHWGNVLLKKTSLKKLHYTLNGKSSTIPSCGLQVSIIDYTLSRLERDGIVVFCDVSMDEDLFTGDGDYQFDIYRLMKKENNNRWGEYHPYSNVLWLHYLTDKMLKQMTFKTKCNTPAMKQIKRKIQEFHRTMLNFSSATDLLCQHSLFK
Chain of CDK8/Cyclin C (P49336 whole entry): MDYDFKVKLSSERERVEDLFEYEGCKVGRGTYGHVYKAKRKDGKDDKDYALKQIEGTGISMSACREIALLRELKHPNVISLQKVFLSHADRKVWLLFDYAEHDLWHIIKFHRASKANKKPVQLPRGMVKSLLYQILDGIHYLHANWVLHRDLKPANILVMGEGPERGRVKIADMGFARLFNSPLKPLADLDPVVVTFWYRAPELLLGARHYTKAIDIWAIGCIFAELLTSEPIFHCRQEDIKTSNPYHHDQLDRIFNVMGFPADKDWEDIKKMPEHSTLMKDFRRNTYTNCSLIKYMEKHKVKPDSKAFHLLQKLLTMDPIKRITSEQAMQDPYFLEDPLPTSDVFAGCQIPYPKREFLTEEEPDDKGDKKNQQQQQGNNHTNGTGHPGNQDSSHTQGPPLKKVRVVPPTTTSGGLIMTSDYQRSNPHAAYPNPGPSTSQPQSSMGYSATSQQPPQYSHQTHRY
Chain of CDK8/Cyclin C (P24863 whole entry partner): as the sequence (P24863 whole entry partner) above
T1 sequence (P49336 whole entry): as the sequence (P49336 whole entry) above
T1 sequence (P24863 whole entry partner): as the sequence (P24863 whole entry partner) above
T1 sequence (Q93074 whole entry partner): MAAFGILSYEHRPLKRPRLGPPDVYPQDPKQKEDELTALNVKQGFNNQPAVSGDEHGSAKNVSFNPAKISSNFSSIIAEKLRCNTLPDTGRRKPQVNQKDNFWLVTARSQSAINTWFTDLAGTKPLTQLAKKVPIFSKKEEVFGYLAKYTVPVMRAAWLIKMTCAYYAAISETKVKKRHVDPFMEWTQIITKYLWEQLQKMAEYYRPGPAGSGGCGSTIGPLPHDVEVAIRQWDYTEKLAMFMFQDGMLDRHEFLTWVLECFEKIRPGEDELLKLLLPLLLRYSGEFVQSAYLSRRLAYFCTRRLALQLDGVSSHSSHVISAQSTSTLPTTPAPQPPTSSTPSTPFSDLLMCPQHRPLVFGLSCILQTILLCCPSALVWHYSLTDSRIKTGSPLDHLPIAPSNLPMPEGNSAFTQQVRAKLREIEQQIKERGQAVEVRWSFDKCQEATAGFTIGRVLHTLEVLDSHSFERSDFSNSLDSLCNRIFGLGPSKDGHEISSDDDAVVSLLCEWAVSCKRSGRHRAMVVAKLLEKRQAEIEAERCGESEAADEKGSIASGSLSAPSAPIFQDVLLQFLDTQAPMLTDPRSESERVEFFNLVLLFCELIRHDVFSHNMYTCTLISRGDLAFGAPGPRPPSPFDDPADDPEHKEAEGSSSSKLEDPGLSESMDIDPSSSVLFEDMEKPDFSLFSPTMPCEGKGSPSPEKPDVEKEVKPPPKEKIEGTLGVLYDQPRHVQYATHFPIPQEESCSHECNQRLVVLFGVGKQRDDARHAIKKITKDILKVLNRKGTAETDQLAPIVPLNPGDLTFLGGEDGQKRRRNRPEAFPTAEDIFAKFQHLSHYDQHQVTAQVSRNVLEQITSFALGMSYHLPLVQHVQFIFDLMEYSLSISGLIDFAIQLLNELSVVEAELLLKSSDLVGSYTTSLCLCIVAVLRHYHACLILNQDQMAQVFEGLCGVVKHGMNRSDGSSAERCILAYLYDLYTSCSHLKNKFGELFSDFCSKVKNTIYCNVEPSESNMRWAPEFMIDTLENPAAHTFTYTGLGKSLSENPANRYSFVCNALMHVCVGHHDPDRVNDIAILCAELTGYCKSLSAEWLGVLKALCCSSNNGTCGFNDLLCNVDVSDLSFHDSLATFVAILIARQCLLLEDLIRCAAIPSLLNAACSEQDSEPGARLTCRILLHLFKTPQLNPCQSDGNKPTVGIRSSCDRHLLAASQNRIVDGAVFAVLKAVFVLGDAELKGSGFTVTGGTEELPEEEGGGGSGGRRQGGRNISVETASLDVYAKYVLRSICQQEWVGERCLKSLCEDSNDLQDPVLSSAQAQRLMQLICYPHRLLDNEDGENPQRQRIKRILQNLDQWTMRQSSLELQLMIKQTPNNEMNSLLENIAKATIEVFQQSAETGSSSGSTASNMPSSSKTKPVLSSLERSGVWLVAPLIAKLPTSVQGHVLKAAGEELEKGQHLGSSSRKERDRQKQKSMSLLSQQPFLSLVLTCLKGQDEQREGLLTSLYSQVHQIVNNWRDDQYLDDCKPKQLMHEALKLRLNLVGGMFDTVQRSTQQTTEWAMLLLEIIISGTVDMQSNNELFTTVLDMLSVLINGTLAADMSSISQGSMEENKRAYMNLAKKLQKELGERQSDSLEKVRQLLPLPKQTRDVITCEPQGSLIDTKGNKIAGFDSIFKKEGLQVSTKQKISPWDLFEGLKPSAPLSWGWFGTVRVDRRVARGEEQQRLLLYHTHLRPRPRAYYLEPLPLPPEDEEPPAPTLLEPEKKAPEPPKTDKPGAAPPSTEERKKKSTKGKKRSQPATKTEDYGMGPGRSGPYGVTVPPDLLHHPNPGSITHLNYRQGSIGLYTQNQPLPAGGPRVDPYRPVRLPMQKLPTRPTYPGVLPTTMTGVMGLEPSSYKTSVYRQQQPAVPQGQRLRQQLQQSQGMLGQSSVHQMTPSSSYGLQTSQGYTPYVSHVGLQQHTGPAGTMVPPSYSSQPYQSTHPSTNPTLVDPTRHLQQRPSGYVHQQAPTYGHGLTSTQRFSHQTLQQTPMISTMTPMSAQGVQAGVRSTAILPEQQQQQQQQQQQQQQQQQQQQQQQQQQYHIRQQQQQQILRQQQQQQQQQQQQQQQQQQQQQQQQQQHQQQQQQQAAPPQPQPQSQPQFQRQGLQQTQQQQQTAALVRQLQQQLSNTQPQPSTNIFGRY

Row | SMILES | IC50 (CDK8/Cyclin C) [µM] | IC50 (Haspin kinase) [µM] | EC50 (intracellular CDK8 [1]) [µM] | EC50 (intracellular HASPIN [2]) [µM] | EC50 (intracellular HASPIN [3]) [µM] | GI50 (MV4:11; Homo sapiens, MV4-11) [µM] | GI50 (MDA-MB-231; Homo sapiens, MDA-MB-231) [µM] | GI50 (SW620; Homo sapiens, SW-620) [µM] | GI50 (Molm13; Homo sapiens, MOLM-13) [µM] | IC50 (CDK19/Cyclin C) [µM] | EC50 (intracellular CDK8 [4]) [µM] | GI50 (MV4:11) [µM] | GI50 (MDA-MB-231) [µM] | GI50 (SW620) [µM] | GI50 (Molm13) [µM]
1 | NC(=O)c1cc2c([nH]1)-c1ccncc1O[C@@H]2C1CCOCC1 (single isomer, unassigned) [Example 71] | 0.281 | 5.76 | 0.5 to 10 | 0.5 to 10 |  |  |  |  |  |  |  |  |  |  | 
2 | CCn1c(C(N)=O)cc2c1-c1ccncc1OC21CCNCC1 [Example 91] | 0.301 | 0.0165 |  | < 0.5 | < 0.5 | < 1 | 1 to 10 | 1 to 10 | < 1 |  |  |  |  |  | 
3 | CCn1c(C(N)=O)cc2c1-c1ccncc1O[C@@H]2C1CCCCC1 (single isomer, unassigned) [Example 90] | 0.00136 | 0.522 |  |  | < 0.5 |  |  |  |  | 0.00141 | < 0.5 | < 1 | 10 to 100 | 10 to 100 | 1 to 10
4 | CCn1c(C(N)=O)cc2c1-c1ccncc1OC21CCOCC1 [Example 82] | 0.00219 | 0.0128 |  |  | < 0.5 | < 1 | 1 to 10 | 1 to 10 | < 1 | 0.00458 | < 0.5 |  |  |  | 
5 | NC(=O)c1cc2c(n1CCF)-c1ccncc1OC21CCCCC1 [Example 84] | 0.00141 | 0.0421 |  |  | < 0.5 | < 1 | 1 to 10 | 1 to 10 | < 1 | 0.148 | < 0.5 |  |  |  | 
6 | COCCn1c(C(N)=O)cc2c1-c1ccncc1OC2(C)C [Example 45] | 0.00464 | 0.182 | < 0.5 | < 0.5 |  |  |  |  |  | 0.0115 |  |  |  |  | 
7 | CCn1c(C(N)=O)cc2c1-c1ccncc1OC21CCN(CC(F)(F)F)CC1 [Example 79] | 0.00111 | 0.0386 |  |  | < 0.5 | < 1 | 1 to 10 | 1 to 10 | < 1 | 0.00314 | < 0.5 |  |  |  | 
